Values quoted from earlier work as cited in patent US20110071125A1, “SUBSTITUTED PHENYLAMINO-BENZENE DERIVATIVES USEFUL FOR TREATING HYPER-PROLIFERATIVE DISORDERS AND DISEASES ASSOCIATED WITH MITOGEN EXTRACELLULAR KINASE ACTIVITY” (priority 2007, published 2011).

Test system: colon cancer
Conditions: oral treatment, mouse models, ref. [18]

Structure (SMILES): O=C(NOCC1CC1)c1ccc(F)c(F)c1Nc1ccc(I)cc1Cl [PD184352]
- colon cancer growth in vivo: inhibit colon cancer growth in vivo
